Target: SARS-CoV-2 3CL^pro (Severe acute respiratory syndrome coronavirus 2, UniProt P0DTD1)
Type: cell-based

GRL-0496
Effect on luciferase reporter activity / 3CL^pro inhibition (in words): clearly inhibited SARS-CoV-2 3CL^pro
